# Results published in patent US9757408B2 (Hayashibara Co., Ltd., priority 2010, dated 2017).
# Marks after values point to notes of the source that are not given here.
# Tests used:
# [1] = tested on: NHEK cells; test: Proliferation of NHEK cells irradiated with ultraviolet rays, fluorescent intensity (Experiment 17); assay type: cell-based, human; details: stimulation by ultraviolet rays
# Protocol: “CELLMATRIX TYPE IV”, a product name of collagen for tissue culture commercialized by Nitta Gelatin Inc., Osaka, Japan, which had been diluted with PBS(K-) by 10 times, was previously placed in “FALCON 35-3001”, a product name of 35 mm petri dish commercialized by Becton Dickinson and Company, NJ, USA, in an amount of 1 mL/plate, and then allowed to stand at ambient temperature for 10 min, followed by removing an excessive amount of CELLMATRIX, drying the petri dish in air, and washing it thrice with PBS(K-). […] The cells were cultured at 37° C. in a 5% v/v CO2 incubator. On the 2nd and 4th days after the cell inoculation, the medium was replaced with EpiLife medium free of EDGS (1 mL/plate). On the 5th day after the cell inoculation, the supernatant was removed, and the petri dish was washed twice by adding 1 mL/petri dish of Hanks' balanced salt solution (called “HBSS (−) buffer”, hereinafter). Further, 2 mL/petri dish of HBSS (−) buffer was added to the petri dish which was then placed in the position 15 cm apart from an ultraviolet ray light source and irradiated with 40 mJ/cm^2 of ultraviolet B radiation. […] As an ultraviolet ray light source, “NS-8F”, a light source for actual use commercialized by Sanwa Medical Co., Ltd., Okayama, Japan, equipped with an ultraviolet B radiation lamp was used, and the radiation dose was measured on “UVR-305/365D (II)”, an ultraviolet ray meter commercialized by Topcon Corporation, Tokyo, Japan. TNF-α was assayed by the same method as in Experiment 2. The remaining other cytokines were assayed with an IL-1α assay kit, commercialized by R & D Systems Inc., MN, USA, and an IL-8 assay kit commercialized by BioLegend, CA, USA.
# [2] = tested on: VCAM-1 expression in HUVEC cells; test: Expression of cell-adhesion factor VCAM-1 on HUVEC cells, fluorescent intensity (Experiment 6-3); assay type: cell-based, human; details: LPS 10 μg/mL, IL-1β, IFN-γ
# Protocol: Thereafter, the supernatant in each well was removed by suction, and the cells were washed twice with PBS, followed by adding 4% paraformaldehyde to the cells and allowing them to stand at ambient temperature for one hour to fix them. After the fixation, the cells were washed thrice with PBS, followed by adding PBS containing 1% BSA and 0.05% NaN3 in an amount of 150 μL/well, and subjecting the cells to blocking at 4° C. overnight. […] Thereafter, the cells were washed four times with PBS, adding an HRPO-labeled streptavidin (“Streptavidin HRP Conjugate”, a product name of Invitrogen Corporation, CA, USA), which had been diluted with PBS containing 3% BSA by 1,000 times, in an amount of 100 μL/well and allowing the cells to stand at ambient temperature for one hour. Finally, the cells were washed four times with PBS, allowed to develop color for 10 min with “QuantaBlue™ Fluorogenic Peroxidase Substrate”, commercialized by Pierce Biotechnology, IL, USA, and determined the cells' fluorescent intensity at a wavelength of 325 to 420 nm. […] The results are in Table 6 in parallel.
# [3] = tested on: tissue factor expression in HUVEC cells; test: Expression of tissue factor in HUVEC cells, ELISA of cell lysate (Experiment 6-2); assay type: cell-based, human; details: for concentration which significantly inhibited the expression of tissue factor: LPS; for concentration which significantly inhibited the expression of tissue factor / Amount of expressed tissue factor: IL-1β, IFN-γ; for Amount of expressed tissue factor: HUVEC, LPS 10 μg/mL
# Protocol: Thereafter, a solution of LPS, IL-1β, and IFN-γ were respectively prepared to give respective concentrations of 10 μg/mL, 2 ng/mL, and 500 IU/mL, added to the cells in an amount of 50 μL/well, and incubated at 37° C. for 5.5 hours in a 5% v/v CO2 incubator. After the culture, the cells were washed twice with PBS, followed by adding PBS to the resulting cells in a volume of 50 μL/well. The multi-plates were subjected to a freezing at −80° C. and thawing process thrice, followed by adding 50 mM Tris buffer (pH 7.4) containing 100 mM NaCl and 0.2% Triton X-100 to the microplates in an amount of 50 μL/well, culturing the cells at 4° C. overnight to prepare a cell lysate. The content of tissue factor in the cell lysate was determined by “AssayMax Human Tissue Factor ELISA Kit”, a product name of ELISA commercialized by Assay Pro, USA.
# [4] = tested on: TNF-α production of HUVEC cells; test: TNF-α production of HUVEC cells, LPS/IL-1β/IFN-γ (Experiment 6-1); assay type: cell-based, human; details: for TNF-α Concentration: HUVEC, LPS 10 μg/mL, IL-1β, IFN-γ; for IC50: Homo sapiens, LPS in the coexistence of IL-1β and IFN-γ, read-out: IC50 against production inhibition of TNF-α
# Description: The results are in Table 6 in parallel.
# [5] = tested on: mouse intraperitoneal macrophages; test: Cell viability of mouse intraperitoneal macrophages, AlamarBlue (Experiment 2); assay type: cell-based; details: LPS 2 μg/mL, IFN-γ 10 IU/mL, control = 100%
# [6] = tested on: TNF-α production from THP-1 cells; adenosine receptors A1R, A2AR, A2BR, A3R; test: TNF-α production from THP-1 cells, LPS + IFN-γ, ANO with adenosine receptor antagonists (Experiment 5); assay type: cell-based; details: LPS + human IFN-γ, ANO 5 μM
# Description: USA; ZM241385, commercialized by Tocris Bioscience, MSY USA; MRS1754, commercialized by Sigma-Aldrich Corporation, St. Louis, Mo. […] The results are in Table 5 in parallel.
# [7] = tested on: BALB/c mice; test: Acute toxicity test, intraperitoneal (Experiment 20); details: mouse, in vivo, ip
# Protocol: As a control, only PBS was intraperitoneally administered to 10 BALB/c mice (6-week-old, female, average weight of 20 g, commercialized by Charles River Laboratories Japan Inc., Tokyo, Japan) at a dose of 1 mL/head, followed by observing the course of the mice for 24 hours.
# [8] = physchem; details: aqueous buffer
compound,measurement,setting,value
"Nc1ncnc2c1ncn2[C@@H]1O[C@H](CO)[C@@H](O)[C@H]1O [AN, adenosine]",Proliferation,[1]; 1 μM,5701 Fluorescent intensity
same,Proliferation,[1]; 5 μM,5683 Fluorescent intensity
same,Proliferation,[1]; 10 μM,5578 Fluorescent intensity
same,Amount of expressed VCAM-1,[2]; test substance 1 μM,"3,824"
same,Amount of expressed VCAM-1,[2]; test substance 2 μM,"3,957"
same,Amount of expressed VCAM-1,[2]; test substance 5 μM,"3,609**"
same,Amount of expressed VCAM-1,[2]; test substance 10 μM,"2,823**"
same,concentration which significantly inhibited the expression of tissue factor,[3]; HUVEC cells,at least 5 μM
same,Amount of expressed tissue factor,[3]; test substance 1 μM,27.1
same,Amount of expressed tissue factor,[3]; test substance 2 μM,26.6
same,Amount of expressed tissue factor,[3]; test substance 5 μM,13.9**
same,Amount of expressed tissue factor,[3]; test substance 10 μM,4.5**
same,TNF-α Concentration,[4]; test substance 1 μM,53 pg/mL
same,TNF-α Concentration,[4]; test substance 2 μM,49.2 pg/mL
same,TNF-α Concentration,[4]; test substance 5 μM,40.3 pg/mL
same,TNF-α Concentration,[4]; test substance 10 μM,31.1** pg/mL
same,IC50,[4]; HUVEC cells,15.2 µM
"Nc1c2ncn([C@@H]3O[C@H](CO)[C@@H](O)[C@H]3O)c2nc[n+]1[O-] [ANO, adenosine N1-oxide]",Proliferation,[1]; 1 μM,5540 Fluorescent intensity
same,Proliferation,[1]; 5 μM,5607 Fluorescent intensity
same,Proliferation,[1]; 10 μM,5682 Fluorescent intensity
same,Amount of expressed VCAM-1,[2]; test substance 0.2 μM,"4,123"
same,Amount of expressed VCAM-1,[2]; test substance 0.5 μM,"4,052"
same,Amount of expressed VCAM-1,[2]; test substance 1 μM,"3,920"
same,Amount of expressed VCAM-1,[2]; test substance 2 μM,"3,967"
same,Amount of expressed VCAM-1,[2]; test substance 5 μM,"3,603*"
same,Amount of expressed VCAM-1,[2]; test substance 10 μM,"2,823**"
same,Cell viability,[5]; ANO 0.006 μM,100%
same,Cell viability,[5]; ANO 0.031 μM,100%
same,Cell viability,[5]; ANO 0.063 μM,100%
same,Cell viability,[5]; ANO 0.313 μM,100%
same,TNF-α Concentration,[6]; no antagonist,97 pg/mL
same,TNF-α Concentration,[6]; pretreated with DPCPX 0.5 μM,132** pg/mL
same,TNF-α Concentration,[6]; pretreated with DPCPX 1 μM,130** pg/mL
same,TNF-α Concentration,[6]; pretreated with DPCPX 5 μM,129** pg/mL
same,TNF-α Concentration,[6]; pretreated with DPCPX 10 μM,133** pg/mL
same,TNF-α Concentration,[6]; pretreated with MRS1220 0.5 μM,105** pg/mL
same,TNF-α Concentration,[6]; pretreated with MRS1220 1 μM,105** pg/mL
same,TNF-α Concentration,[6]; pretreated with MRS1220 5 μM,105** pg/mL
same,TNF-α Concentration,[6]; pretreated with MRS1220 10 μM,102** pg/mL
same,TNF-α Concentration,[6]; pretreated with MRS1754 0.5 μM,118** pg/mL
same,TNF-α Concentration,[6]; pretreated with MRS1754 1 μM,121** pg/mL
same,TNF-α Concentration,[6]; pretreated with MRS1754 5 μM,121** pg/mL
same,TNF-α Concentration,[6]; pretreated with MRS1754 10 μM,103* pg/mL
same,TNF-α Concentration,[6]; pretreated with ZM241385 0.5 μM,135** pg/mL
same,TNF-α Concentration,[6]; pretreated with ZM241385 1 μM,137** pg/mL
same,TNF-α Concentration,[6]; pretreated with ZM241385 5 μM,135** pg/mL
same,TNF-α Concentration,[6]; pretreated with ZM241385 10 μM,132** pg/mL
same,"inhibitory strength on tissue factor expression, stronger than adenosine",[3]; HUVEC cells,at least 10 times
same,concentration which significantly inhibited the expression of tissue factor,[3]; HUVEC cells,at least 0.5 μM
same,Amount of expressed tissue factor,[3]; test substance 0.2 μM,27.6
same,Amount of expressed tissue factor,[3]; test substance 0.5 μM,13.5**
same,Amount of expressed tissue factor,[3]; test substance 1 μM,12.9**
same,Amount of expressed tissue factor,[3]; test substance 2 μM,9.4**
same,Amount of expressed tissue factor,[3]; test substance 5 μM,0**
same,Amount of expressed tissue factor,[3]; test substance 10 μM,0**
same,LD50,[7],"≥ 1,000 mg/kg body weight"
same,change in appearance after administration,[7],no change in appearance
same,TNF-α production inhibitory action stronger than that of adenosine,"[4]; HUVEC cells, comparison of IC50",about 16 times
same,TNF-α Concentration,[4]; test substance 0.2 μM,51 pg/mL
same,TNF-α Concentration,[4]; test substance 0.5 μM,41.1 pg/mL
same,TNF-α Concentration,[4]; test substance 1 μM,25.1** pg/mL
same,TNF-α Concentration,[4]; test substance 2 μM,12.3** pg/mL
same,TNF-α Concentration,[4]; test substance 5 μM,1.8** pg/mL
same,IC50,[4]; HUVEC cells,0.97 µM
same,solubility,[8],~20 mg/mL
"OC[C@H]1O[C@@H](n2cnc3c(O)ncnc32)[C@H](O)[C@@H]1O [IN, inosine]",Proliferation,[1]; 1 μM,5643 Fluorescent intensity
same,Proliferation,[1]; 5 μM,5611 Fluorescent intensity
same,Proliferation,[1]; 10 μM,5633 Fluorescent intensity
